Here are results for 16 compounds from patent US5137897A, “2-substituted 4-(3-alkyl-5-tert.-butyl-4-hydroxyphenyl) thiazoles, processes for their preparation, pharmaceuticals containing them and their use” (Hoechst Aktiengesllschaft, priority 1989, dated 1992).

The nature of test [1]: Free radical scavenger properties (reaction with DPPH). The settings on record: reaction with DPPH at 20° C.; determined graphically. As for the experimental part:
a) Free radical scavenger properties The testing in this test, which allows conclusions on the antioxidative potential of a substance, was carried out according to Smith et al., Biochem, Pharmacol. 1987. 36, 1456. In this test, the reaction of the compounds according to the invention with the stable free radical 1,1-diphenyl-2-picrylhydrazyl (DPPH) is monitored optically at 20° C. The rate constant K and reaction orders n in Table 5 were determined graphically in the customary manner.
A general note: Loss of DPPH colour is used to gauge radical scavenging.

Test [2] deals with Arthus reaction (paw volume increase) in rats. As to the kind of experiment: Reverse passive Arthus reaction. The class given is in vivo, rat (male Sprague-Dawley). As for the experimental part: b) Reverse passive Arthus reaction
Male Sprague-Dawley rats having a body weight between 100 and 120 g. which had been divided into groups of 8 animals in each case, were used as experimental animals. The animals received a subplantar injection in the left hind paw of 0.5 mg of immunoglobulin in 0.1 ml of a sodium chloride solution 1 hour after oral administration of the test substance. After 4 hours, the Arthus reaction was measured, the percentage change in the paw volume increase compared to that of the control group treated only with vehicle being used as a measuring parameter for the action.

In test [3] the test system is Adjuvant arthritis (paw volume increase) in rats. As to the kind of experiment: Adjuvant arthritis (method of Pearson), antiinflammatory action on the 5th day. The settings on record: Rattus norvegicus, 120 h; for inhibition in vivo at 50 mg/kg: po, 50 mg/kg p.o. once daily, 1st to 5th day, vs untreated control, read-out: Adjuvant arthritis (% inhibition at 50 mg/kg orally); for ED50: adjuvant arthritis, oral, determined graphically from dose-response curve. The class given is in vivo, rat (male, Wistar-Lewis strain). Here is the method:
The testing of the compounds of the formula I according to the invention for antiinflammatory action, influence on immunopathological processes, oxygen free radicaldeactivating properties and influence on arachidonic acid metabolism was carried out in the animal models and bioassays described in the following.
1. Adjuvant arthritis for influencing the antiinflammatory action (Table 2)
(§1) The investigations were carried out by the method of Pearson (Arthrit. Rheum. 1959, 2, 44). Male rats of a Wistar-Lewis strain having a body weight between 130 and 200 g were used as experimental animals. The compounds to be tested were administered orally (p. o.) once daily from the 1st to the 5th experimental day in doses of 50 mg per kg of body weight. The animals of one control group received only the vehicle. Each preparation group and the control group comprised 8 animals. The percentage reduction of the paw volume increase compared to that of the untreated control group was used as the criterion of action. The ED50 values were determined graphically from the dose-response curve.
(§2) 4-(3,5-Di-tert.-butyl-4-hydroxyphenyl)-2-methylthiazole i.e. the compound of the formula [drawing 26] according to US-A-4,535,165 mentioned at the beginning, was additionally included in this and the investigation below as a comparison preparation.

The test system of test [4] is 5-HETE formation in human neutrophils. Briefly: Influence on 5-HETE formation in human neutrophils. The settings on record: Neutrophil. Type of test: cell-based. As for the experimental part: (§3) Moreover, the substances according to the invention were also characterized in cellular leukocyte systems in vitro as inhibitors of arachidonic acid metabolites. To detect the lipoxygenase metabolites, human neutrophils stimlated by calcium ionophore A 23 187 (70 mcmol/1) were incubated with ^14 C-arachidonic acid (81 mcmol/1) and the principal metabolites formed after 15 minutes at 37° C., such as 5-hydroxyeicosatetraenoic acid (5-HETE) and the more strongly proinflammatory leukotriene B4 (LTB4) were determined quantitatively (Tab. 6) with the aid of a radio monitor after separation by HPLC. The influence on the proinflammatory arachiconic acid metabolites thromboxane and LTB4 in cultures prepared from rat mast cells was determined in a corresponding manner (Tab. 7).

Test [5] concerns LTB4 formation in human neutrophils. As to the kind of experiment: Influence on LTB4 formation in human neutrophils. The class given is cell-based. To be noted: Neutrophil. Here is the method:
as §3

The subject of test [6] is Adjuvant arthritis (Perper modification; paw volume) in rats. Briefly: Adjuvant arthritis (Perper modification), paw volume on the 21st day. Type of test: in vivo, rat (male, Wistar-Lewis strain). To be noted: Rattus norvegicus, po, 504 h, 1st to 12th day; for inhibition in vivo at 5 mg/kg: 5 mg/kg/day; for inhibition in vivo at 10 mg/kg: 10 mg/kg/day.
For test [7] the test system is unchanged. Described as above. The settings on record: for inhibition in vivo at 50 mg/kg: Rattus norvegicus, po, 504 h, 50 mg/kg/day, 1st to 12th day. Type of test: in vivo, rat (male, Wistar-Lewis strain). As for the experimental part:
as §1, §2
a) Adjuvant arthritis (Perper modification)
The animals were only treated from the 1st to the 12th experimental day in the experimental arrangement described in item 1. After a treatment-free interval of 9 days, determination of the paw volume of the left and right hind paw was carried out on the 21st day (compare Table 3).

The mark [8] stands for this setting: read-out: % inhibition on the 21st day, Left paw.
[9] abbreviates: read-out: % inhibition on the 21st day, Right paw.

Like-named read-outs stand apart in the source and are kept apart here. A value given as a limit tells only on which side of the number the result lay.

The compound `CC(C)(C)c1cc(-c2csc(CSCC(=O)O)n2)cc(C(C)(C)C)c1O` [Example 18] showed a reaction order n in test [1] of 1. In addition, the “% inhibition (Arthus reaction)” value in test [2] (100 mg/kg orally) was 50%.

As for `CC(C)(OCc1nc(-c2cc(C(C)(C)C)c(O)c(C(C)(C)C)c2)cs1)C(=O)O` [Example 6], the inhibition in vivo at 50 mg/kg in test [3] came to 70%.

Consider `CC(C)(C)c1cc(-c2csc(CC(=O)O)n2)cc(C(C)(C)C)c1O` [Example 9], for which the activity at 0.1 µM in test [4] (0.1 μM, n = 6, read-out: 5-HETE formation, Residual activity (%)) worked out at 91.5 ± 10%; in test [5] (0.1 μM, n = 6, read-out: LTB4 formation, Residual activity (%)), 70 ± 12%. In addition, the activity at 1 µM in test [4] (1 μM, n = 6, read-out: 5-HETE formation, Residual activity (%)) was 80 ± 8%; in test [5] (1 μM, n = 6, read-out: LTB4 formation, Residual activity (%)), 79 ± 11%. For the same compound, the activity at 10 µM in test [4] (10 μM, n = 6, read-out: 5-HETE formation, Residual activity (%)) was found to be 75 ± 13%; in test [5] (10 μM, n = 6, read-out: LTB4 formation, Residual activity (%)), 73 ± 12%. Further, the activity at 100 µM in test [4] (100 μM, n = 9, read-out: 5-HETE formation, Residual activity (%)) stood at 21 ± 8%; in test [5] (100 μM, n = 9, read-out: LTB4 formation, Residual activity (%)), 20.5 ± 11%. In addition, the reaction order n in test [1] is recorded as under 1.

In turn, `CCOC(=O)C=Cc1nc(-c2cc(C(C)(C)C)c(O)c(C(C)(C)C)c2)cs1` [Example 2, Ethyl 3-[4-(3,5-di-tert.-butyl-4-hydroxyphenyl)thiazol-2-yl]acrylate] gave a reaction order n in test [1] of 1.

As for `CN(O)C(=O)CCc1nc(-c2cc(C(C)(C)C)c(O)c(C(C)(C)C)c2)cs1` [Example 19], in test [3], the ED50 amounted to 2.5 mg/kg and the inhibition in vivo at 50 mg/kg was 75%. The compound further gave a reaction order n in test [1] of under 1. Besides, the “% inhibition (Arthus reaction)” value in test [2] (50 mg/kg orally) is on record as 45%. For the same compound, in test [6] (setting [8]), the inhibition in vivo at 5 mg/kg is 59% and the inhibition in vivo at 10 mg/kg was found to be 72%. In addition, in test [6] (setting [9]), the inhibition in vivo at 5 mg/kg was 70% and the inhibition in vivo at 10 mg/kg was determined as 85%.

As to `CONC(=O)CCc1nc(-c2cc(C(C)(C)C)c(O)c(C(C)(C)C)c2)cs1` [Example 20], the inhibition in vivo at 50 mg/kg came out at 50% in test [7] (setting [8]), 35% in test [7] (setting [9]) and 66% in test [3].

Regarding `CC(C)(C)c1cc(-c2csc(C=NOCC(=O)O)n2)cc(C(C)(C)C)c1O` [Example 5], the inhibition in vivo at 50 mg/kg in test [7] (setting [8]) came out at 20%; in test [7] (setting [9]), 42%; in test [3], 51%. In addition, in test [2] (60 mg/kg orally), the “% inhibition (Arthus reaction)” value came to 38%.

Regarding `Cc1cc(-c2csc(CCC(=O)O)n2)cc(C(C)(C)C)c1O` [Example 17], the inhibition in vivo at 50 mg/kg in test [7] (setting [8]) was 60%; in test [7] (setting [9]), 38%; in test [3], 67%. Besides, in test [3], the ED50 worked out at 7.5 mg/kg.

`CC(C)(C)c1cc(-c2csc(C=C3CCNC3=O)n2)cc(C(C)(C)C)c1O` [Example 4, 3-[4-(3,5-Di-tert.-butyl-4-hydroxyphenyl)thiazol-2-ylmethylidene]pyrrolidin-2-one]: in test [3], the inhibition in vivo at 50 mg/kg stood at 54%.

For `CCOC(=O)CCc1nc(-c2cc(C(C)(C)C)c(O)c(C(C)(C)C)c2)c(C)s1` [Example 14], the figures for the inhibition in vivo at 50 mg/kg in test [7] (setting [8]), in test [7] (setting [9]) and in test [3] were 22%, 49% and 61%, respectively.

With `Cc1nc(-c2cc(C(C)(C)C)c(O)c(C(C)(C)C)c2)cs1` [Comparison preparation, 4-(3,5-Di-tert.-butyl-4-hydroxyphenyl)-2-methylthiazole, reference compound], the inhibition in vivo at 50 mg/kg is 12% in test [7] (setting [8]), 21% in test [7] (setting [9]) and 67% in test [3]. In addition, the “action in the Perper modification of adjuvant arthritis (in words)” value in test [7] (comparison with preparation from US-A-4,535,165) is on record as “only a suggested action”.

For `CC(C)(C)c1cc(-c2csc(C=CC(=O)O)n2)cc(C(C)(C)C)c1O` [Example 11], the results for the inhibition in vivo at 50 mg/kg in test [7] (setting [8]), in test [7] (setting [9]) and in test [3] were 44%, 51% and 63%, respectively. Moreover, in test [3], the median effective dose (ED50) is 12.6 mg/kg. Also, the reaction order n in test [1] was 1.

As to `CC(C)(C)c1cc(-c2csc(CCC(=O)Nc3nn[nH]n3)n2)cc(C(C)(C)C)c1O` [Example 21], the results for the inhibition in vivo at 50 mg/kg in test [7] (setting [8]), in test [7] (setting [9]) and in test [3] were 42%, 54% and 65%, respectively. The same compound showed a reaction order n in test [1] of 1. Moreover, in test [2] (50 mg/kg orally), the “% inhibition (Arthus reaction)” value is recorded as 48%.

In the case of `CC(C)(C)c1cc(-c2csc(CCCC(=O)O)n2)cc(C(C)(C)C)c1O` [Example 10], in test [3], the inhibition in vivo at 50 mg/kg was 71%.

Take `CCOC(=O)CCc1nc(-c2cc(C(C)(C)C)c(O)c(C(C)(C)C)c2)cs1` [Example 1, Ethyl 3-[4-(3,5-di-tert.-butyl-4-hydroxyphenyl)thiazol-2-yl]propionate]: the inhibition in vivo at 50 mg/kg in test [7] (setting [8]) came out at 45%; in test [7] (setting [9]) it was 49%; in test [3], 73%. In addition, in test [3], the 50% effective dose (ED50) was determined as 5.7 mg/kg. The compound also came in with a reaction order n in test [1] of under 1.

In the case of `COC(=O)CCc1nc(-c2cc(C(C)(C)C)c(O)c(C(C)(C)C)c2)cs1` [Example 13], the inhibition in vivo at 50 mg/kg turned out to be 44% in test [7] (setting [8]), 31% in test [7] (setting [9]) and 74% in test [3]. The compound also showed a reaction order n in test [1] of 1.

In general, ED50 refers to the midpoint of the dose-response relation.
